Reference: patent US20120095024A1, “TOLUIDINE SULFONAMIDES AND THEIR USE” (Elara Pharmaceuticals GmbH, priority 2008, published 2012)

Tests used:
[1] = tested on: estrogen receptor (ER)-mediated transcriptional activity; assay: Inhibition of estrogen receptor (ER) signaling, ERE-tk-luc transfection assay in MCF-7 cells; format: cell-based; details: Homo sapiens, MCF7, ERE-tk-luc luciferase readout, 24 h
Experimental: To determine the effect of the compounds on estrogen receptor (ER)-mediated transcriptional activity a transfection assay using the MCF-7 cell line was performed. A luciferase-coupled ERE-tk-luc construct was obtained from Dr. G. Reid (EMBL).
In brief, MCF-7 cells were maintained as described previously and seeded on the first experimental day at a concentration of 3500 cells/well in 100 μl medium and incubated under standard conditions for 24 h. Following this initial incubation period, transfection was carried out using 5 ng of the ERE-tk-luc construct (per well) and Exgene 500 transfection reagent (Fermentas) in a final buffered solution containing 150 mM NaCl and 20 mM Tris pH 8.4. The plates were then maintained for 3-4 hours until cell culture conditions in the incubator before compounds were added at 11× concentrations to yield the final desired compound concentrations in 0.5% DMSO (in the same manner as for the proliferation assays described previously).
After an additional 24 h incubation period the degree of inhibition of ER-signaling was determined via a luciferase readout. Cells were treated with Britelite™ plus solution according to the manufacturer's instructions (PerkinElmer, britelite plus, Ultra-High Sensitivity Luminescence Reporter Gene Assay System) and luciferase levels measured on an Envision HTS multilabel plate reader (PerkinElmer) in luminescence mode according to established protocols. Raw data were imported into an ActivityBase database (IDBS, ID Business Solutions) and IC50 values calculated using the IDBS program ActivityBase XE.

MCF7 cells = assay: Cell proliferation assay (ATPlite), MCF-7; format: cell-based, human; details: Homo sapiens, inhibition of cell proliferation, 72 h
How it was run: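 Cells seeded (MCF-7 2000/well, HG-1 1000/well in RPMI with 2 ng/ml IL-6), then after 24 h exposed to compound at 0.5% DMSO final for 72 h. Proliferation read as ATP luminescence (ATPlite); EC50 calculated from the dose-response.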

caspase-3/7 = assay: Activation of apoptosis, Caspase-Glo 3/7 in HG-1 cells; format: cell-based; details: caspase-3/7 activation, 24 h
Experimental: Activation of caspase-3/7 signal following treatment with test compounds was carried out using a Caspase-Glo® 3/7 kit (Promega). In brief, HG-1 cells were seeded at a concentration of 1000 cells/well in 50 μl medium into 96-well plates and incubated for 24 h under the conditions described previously. Compounds at various concentrations were then added to the wells (at all final concentrations 0.5% DMSO) and incubated for a further 24 h period. The plates were subsequently removed from the incubator and allowed to equilibrate to room temperature, after which 50 μl Caspase-Glo reagent was added to all wells, the plate shaken at 300 rpm for 30 s, and luminescence measured after a 30 min incubation period on an Envision HTS (PerkinElmer).

HG1 cells = assay: Cell proliferation assay (ATPlite), HG-1; format: cell-based; details: inhibition of cell proliferation, 72 h
Experimental: MCF-7 human breast adenocarcinoma cells and HL-60 acute promyelocytic leukaemia cells were obtained from ATCC (LGC Promochem). HG-1 multiple myeloma cells were obtained from Dr. D. Hose (DKFZ Heidelberg). The CellSensor® HRE-bla HCT116 cell line (colorectal carcinoma) was obtained from Invitrogen.
Cells were grown under humidified 95% air, 5% CO2 at 37° C. in Dulbecco's modified Eagle's medium (DMEM: MCF-7) or RPMI 1640 medium (RPMI: HL-60, HG-1) supplemented with 10% fetal bovine serum (FBS), 100 U/ml penicillin and 100 μg/ml streptomycin, 2 mM L-glutamine, and 2 ng/ml IL-6 (for the HG-1 cell line only). The HCT116 cell line was grown under the same atmospheric conditions in McCoy's 5A medium supplemented with 10% FBS and penicillin/streptomycin as above, in addition to blasticidin as a selection marker at a final concentration of 5 μg/ml.
Cell proliferation experiments were carried out in 96-well tissue culture plates with seeding of 2000 cells/well (MCF-7) or 1000 cells/well (HL-60, HG-1) in 100 μl of the relevant medium. Cells were subsequently incubated under the conditions mentioned for 24 h prior to addition of compounds.
For the determination of compound EC50 values, 10 μl compounds at 11× concentrations in 5.5% DMSO were added to the wells at various concentrations yielding a final constant percentage of 0.5% DMSO at the desired 1× compound concentration. As a positive control, cells were treated with 5.5% DMSO. The cells were then incubated for a further 72 h prior to the measurement.
To determine the degree of inhibition of cell proliferation, cells were treated with ATPlite solution according to the manufacturer's instructions (PerkinElmer, ATPlite 1-step Luminescence ATP Detection Assay System) and luciferase readout measured on an Envision HTS multilabel plate reader (PerkinElmer) in luminescence mode according to established protocols. Raw data were imported into an ActivityBase database (IDBS, ID Business Solutions) and EC50 values calculated using the IDBS program ActivityBase XE. Table 2A and 2B show the IC50 values obtained in the above-outlined cell proliferation assay for exemplary compounds of the invention.

[2] = tested on: HIF mediated transcription; assay: Inhibition of activation of HIF mediated transcription under hypoxic conditions (CellSensor HRE-bla HCT-116); format: cell-based; details: Homo sapiens; HRE-bla HCT-116 cells, deferoxamine-induced hypoxia, 24 h
Experimental: Inhibition of an activated HIF signaling response under chemically-induced hypoxic conditions due to compound treatment was determined using the CellSensor® HRE-bla HCT-116 stably transfected reporter cell line from Invitrogen according to the manufacturer's instructions. HIF is a transcriptional factor composed of the constitutively expressed HIF1β subunit and one of three HIFα subunits (HIF1α, HIF2α, HIF3α). This assay is responsive towards HIFa activity in general. In one example, HIF-1, when stabilized by hypoxic conditions, upregulates several genes to promote cell survival in low-oxygen conditions. These include glycolysis enzymes, which allow ATP synthesis in an oxygen-independent manner, and vascular endothelial growth factor (VEGF), which promotes angiogenesis. HIF-1 acts by binding to HIF-responsive elements (HREs) in promoters that generally contain the sequence NCGTG.
Cells were maintained as described previously and seeded into 384-well, clear-bottom plates (Corning 3712) at 15000 cells/well in 32 μl assay medium (Opti-MEM [Invitrogen], 0.5% FBS, 100 U/ml penicillin, 100 μg/ml streptomycin, 0.1 mM non-essential amino acids [NEAA], 1 mM sodium pyruvate, 5 mM HEPES [pH 7.3]). Following a 2 h incubation period, compounds (4 μl) were subsequently added to the cells at 10× concentrations in 5% DMSO and incubated under normal conditions for 30 min. To induce hypoxic conditions, 4 μl of a 2 mM deferoxamine (DFO) solution was added to the cells followed by 24 h incubation under standard assay conditions (as described). Control wells included wells containing only medium (no cells) and wells treated with 0.5% DMSO instead of compound.
Prior to the readout, the Substrate Loading Solution was prepared as described in the manufacturer's protocol and 10 μl added to each well. Following a further 2 h incubation period at room temperature and in the dark, fluorescence was measured at two wavelengths (blue channel: ex. 409 nm, em. 460 nm; green channel: ex. 409 nm, em. 530 nm) on a PerkinElmer Envision HTS. For the analysis, the average signal of the cell-free wells at 460 nm and 530 nm was first subtracted from the blue and green channel data, respectively. The blue/green emission ratios were then calculated for each well, dividing the background-corrected blue emission values by the background-corrected green emission values. IC50 values were determined from these ratios using GraphPad Prism (Prism 5, GraphPad software, Inc.).

tubulin = target: T1, tubulin (Sus scrofa, UniProt P02550+P02554); assay: Inhibition of in vitro tubulin polymerization; format: biochemical, porcine; details: final absorbance 340 nm at 90 min
T1 construct: prepared in-house from porcine brain using a standard procedure involving cycles of polymerization/de-polymerization; from tissue; host or cells: porcine brain
T1 sequence (P02550 whole entry): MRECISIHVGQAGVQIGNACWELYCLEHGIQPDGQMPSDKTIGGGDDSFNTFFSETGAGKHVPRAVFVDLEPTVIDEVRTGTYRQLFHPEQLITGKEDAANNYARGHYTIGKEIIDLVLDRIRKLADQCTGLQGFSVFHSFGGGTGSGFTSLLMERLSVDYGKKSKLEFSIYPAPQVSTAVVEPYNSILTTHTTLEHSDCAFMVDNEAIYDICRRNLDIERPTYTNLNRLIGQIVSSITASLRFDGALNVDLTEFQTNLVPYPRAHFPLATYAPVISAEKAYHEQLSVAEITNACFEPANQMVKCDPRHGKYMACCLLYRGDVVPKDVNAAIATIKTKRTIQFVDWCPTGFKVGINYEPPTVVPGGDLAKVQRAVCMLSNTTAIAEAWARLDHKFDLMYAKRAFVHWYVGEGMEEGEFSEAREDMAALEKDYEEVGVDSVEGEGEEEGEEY
T1 sequence (P02554 whole entry): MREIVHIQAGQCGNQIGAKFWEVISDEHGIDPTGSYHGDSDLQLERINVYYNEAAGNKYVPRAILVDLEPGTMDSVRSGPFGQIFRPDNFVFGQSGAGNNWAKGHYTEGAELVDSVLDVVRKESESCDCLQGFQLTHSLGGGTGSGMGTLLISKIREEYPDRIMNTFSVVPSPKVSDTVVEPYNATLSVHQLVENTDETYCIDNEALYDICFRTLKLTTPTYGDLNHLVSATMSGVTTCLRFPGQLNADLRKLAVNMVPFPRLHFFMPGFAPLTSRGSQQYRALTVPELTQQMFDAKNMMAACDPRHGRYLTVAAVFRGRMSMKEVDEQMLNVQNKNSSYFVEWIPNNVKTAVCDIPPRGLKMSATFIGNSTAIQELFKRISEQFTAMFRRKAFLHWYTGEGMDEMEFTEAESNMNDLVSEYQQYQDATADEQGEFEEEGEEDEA
Experimental: To assess the degree of inhibition of in vitro tubulin polymerization, a tubulin solution (prepared in-house from porcine brain using a standard procedure involving cycles of polymerization/de-polymerization, see Castoldi & Popov (2003) Protein Expr. Purif. 32(1): 83-88) was incubated with varying concentrations of compounds under polymerizing conditions and kinetic experiments performed to determine the amount of polymerization (as measured by changes in OD at 340 nm) taking place over a 90 min period.
Compound solutions were diluted in double-distilled water to yield final 10× solutions containing 5% DMSO. 5 μl solutions were then added to the wells on a 384-well clear-bottom plate (Corning #3711, Corning Inc.) in preparation for the addition of tubulin. The tubulin solution (19.6 mg/ml, in 80 mM K-PIPES [pH 6.8], 1 mM MgCl2, 1 mM EGTA) was re-suspended to a final concentration of 4 mg/ml with ice cold G-PEM buffer (80 mM PIPES [pH 6.8], 2 mM MgCl2, 0.5 mM EGTA, 10% glycerol, 1 mM GTP) and maintained on ice for at least 1 min. 50 μl was then added to the pre-dispensed compound solutions, the plate orbital shaken on a medium setting for 5 s, and the first measurement begun immediately.
Experiments were carried out on a Safire^2™ monochromator (Tecan) preset to a stable temperature of 37° C.; the degree of polymerization was determined by measuring the absorbance of the solutions at 340 nm every minute over the 90 min cycle. Reported inhibition values were based on the final absorbance at 90 min and calculated with reference to a vehicle control (0.5% DMSO) using the minimum and maximum signals obtained for this sample.

SMILES	IC50 [1] [nM]	EC50 (MCF7 cells) [nM]	EC50 (caspase-3/7) [nM]	EC50 (HG1 cells) [nM]	EC50 [2] [nM]	inhibition at 10 µM (tubulin) [%]
Cc1ccc(S(=O)(=O)Nc2cc(-c3ccc(C#N)s3)ccc2C)cc1 [Example 47, N-[5-(5-Cyano-thiophen-2-yl)-2-methyl-phenyl]-4-methyl-benzenesulfonamide]	< 500	< 500	< 500	< 500	–	–
COc1ccc(S(=O)(=O)Nc2cc(-c3ccc(C#N)s3)ccc2C)cc1 [Example 51, N-[5-(5-Cyano-thiophen-2-yl)-2-methyl-phenyl]-4-methoxy-benzenesulfonamide]	–	< 500	< 500	< 500	< 500	–
Cc1ccc(S(=O)(=O)Nc2cc(-c3ccc(C#N)cc3)ccc2C)cc1 [Example 60, N-(4′-Cyano-4-methyl-biphenyl-3-yl)-4-methyl-benzenesulfonamide]	< 500	< 500	< 500	–	–	< 20
